Source: patent US8952024B2, “Herbicidal pyrimidone derivatives” (E I du Pont de Nemours and Company, priority 2009, dated 2015)

Tests used:
Type in all cases: in vivo
[1] = tested on: large crabgrass (Digitaria sanguinalis); test: Test A pre-/postemergence plant response
Summary of the method: (§1)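 Greenhouse trial, ~10 days. Soil (loam/sand) sprayed preemergence after seeding; emerged plants (1–2 leaf, 2–10 cm) sprayed postemergence in parallel. Response = visual injury vs untreated control, 0–100.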

[2] = tested on: morningglory (Ipomoea spp.); test: Test A pre-/postemergence plant response
Summary of the method: as §1

[3] = tested on: giant foxtail (Setaria faberii); test: Test A pre-/postemergence plant response
Summary of the method: as §1

[4] = tested on: pigweed (Amaranthus retroflexus); test: Test A pre-/postemergence plant response
Summary of the method: as §1

[5] = tested on: velvetleaf (Abutilon theophrasti); test: Test A pre-/postemergence plant response
Summary of the method: as §1

[6] = tested on: barnyardgrass (Echinochloa crus-galli); test: Test A pre-/postemergence plant response
Summary of the method: as §1

[7] = tested on: wheat (Triticum aestivum); test: Test A pre-/postemergence plant response
Summary of the method: as §1

[8] = tested on: corn (Zea mays); test: Test A pre-/postemergence plant response
Summary of the method: as §1

[9] = tested on: winter barley (Hordeum vulgare); test: Test B postemergence plant response; conditions: for Barley plant response rating (0 to 100 scale): 0 is no effect
Summary of the method: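 Visual ratings from 0 (no effect) to 100 (complete control), made against controls 13–15 days after treatment, kept in a greenhouse. Compounds were applied postemergence to potted plants at the 1- to 4-leaf stage (2–18 cm).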

[10] = tested on: rice (Oryza sativa); test: Test B flooded paddy test; conditions: for Plant response rating, Flood, Rice: 250 g ai/ha, flooded paddy test, visual rating on 0 to 100 scale (0 no effect, 100 complete control) after 13 to 15 days; for Plant response rating, Rice: Flood (flooded paddy test), 13 to 15 days; for Rice plant response rating: Flood, 31 g ai/ha, scale 0 to 100 (0 no effect, 100 complete control)
Summary of the method: (§2)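 Rice, umbrella sedge, ducksalad and barnyardgrass were grown to the 2-leaf stage, flooded to 3 cm, and compound was applied directly to the paddy water, with that depth kept throughout. After 13 to 15 days in the greenhouse, plants were visually rated against controls on a 0 (no effect) to 100 (complete control) scale.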

[11] = tested on: umbrella sedge (Cyperus difformis); test: Test B flooded paddy test; conditions: for Plant response rating, Flood, Sedge, Umbrella: 250 g ai/ha, flooded paddy test, visual rating on 0 to 100 scale (0 no effect, 100 complete control) after 13 to 15 days; for Plant response rating, Sedge, Umbrella: Flood (flooded paddy test), 13 to 15 days; for Sedge, Umbrella plant response rating: Flood, 31 g ai/ha, scale 0 to 100 (0 no effect, 100 complete control)
Summary of the method: as §2

[12] = tested on: ducksalad (Heteranthera limosa); test: Test B flooded paddy test; conditions: for Plant response rating, Flood, Ducksalad: 250 g ai/ha, flooded paddy test, visual rating on 0 to 100 scale (0 no effect, 100 complete control) after 13 to 15 days; for Plant response rating, Ducksalad: Flood (flooded paddy test), 13 to 15 days; for Ducksalad plant response rating: Flood, 31 g ai/ha, scale 0 to 100 (0 no effect, 100 complete control)
Summary of the method: as §2

[13] = tested on: barnyardgrass (Echinochloa crus-galli); test: Test B flooded paddy test; conditions: for Plant response rating, Flood, Barnyardgrass: 250 g ai/ha, flooded paddy test, visual rating on 0 to 100 scale (0 no effect, 100 complete control) after 13 to 15 days; for Plant response rating, Barnyardgrass: Flood (flooded paddy test), 13 to 15 days; for Barnyardgrass plant response rating: Flood, 31 g ai/ha, scale 0 to 100 (0 no effect, 100 complete control)
Summary of the method: as §2

[14] = Postemergence, 125 g ai/ha, 0 to 100 scale where 0 is no effect and 100 is complete control
[15] = Postemergence, 500 g ai/ha, visual injury, 0 to 100 scale (0 no effect, 100 complete control), approx. ten days
[16] = Preemergence, 125 g ai/ha, 0 to 100 scale, 0 = no effect, 100 = complete control
[17] = Preemergence, 500 g ai/ha, 0 to 100 scale, 0 = no effect, 100 = complete control
[18] = Postemergence, 31 g ai/ha, 0 to 100 scale (0 no effect, 100 complete control)
[19] = Postemergence, 125 g ai/ha, scale 0 to 100 (0 no effect, 100 complete control)
[20] = Postemergence, 250 g ai/ha, scale 0 to 100 (0 no effect, 100 complete control), 13 to 15 days
[21] = Postemergence, 62 g ai/ha, scale 0 to 100 (0 no effect, 100 complete control)
[22] = 62 g ai/ha, scale of 0 to 100 where 0 is no effect and 100 is complete control
[23] = 125 g ai/ha, scale 0 to 100, 0 is no effect, 100 is complete control
[24] = Postemergence, 1000 g ai/ha, 0 to 100 scale, 0 = no effect, 100 = complete control, approx. ten days
[25] = Preemergence, 1000 g ai/ha, visual injury, 0 to 100 scale (0 no effect, 100 complete control), approx. ten days
[26] = Postemergence, 500 g ai/ha, 0 to 100 scale, 0 = no effect, 100 = complete control, approx. ten days
[27] = Preemergence, 500 g ai/ha, visual injury, 0 to 100 scale (0 no effect, 100 complete control), approx. ten days
[28] = 31 g ai/ha, postemergence, scale 0 to 100, 0 is no effect, 100 is complete control
[29] = 62 g ai/ha, postemergence, 100 is complete control, 13 to 15 days
[30] = Postemergence, 125 g ai/ha, visual rating after 13 to 15 days, scale 0 (no effect) to 100 (complete control)
[31] = Postemergence, 250 g ai/ha, scale 0 to 100 (0 no effect, 100 complete control)

CCCn1c(-c2ccccc2)ncc(C(=O)C2=C(O)C3CCC(C3)C2=O)c1=O (stereo not shown) [Compound 226]
20: Rice plant response rating [10]
90: Plant response rating, Crabgrass, Large [1, 14] | Plant response rating, Crabgrass, Large [1, 16] | Plant response rating, Foxtail, Giant [3, 14] | Foxtail, Giant plant response rating [3, 15] | Plant response rating, Foxtail, Giant [3, 17] | Plant response rating, Barnyardgrass [6, 14] | Barnyardgrass plant response rating [6, 15]
0: Plant response rating, Wheat [7, 14] | Plant response rating, Wheat [7, 16] | Plant response rating, Corn [8, 16] | Plant response rating, Corn [8, 17] | Plant response rating, Ducksalad [12, 22] | Ducksalad plant response rating [12]
50: Wheat plant response rating [7, 15] | Plant response rating, Sedge, Umbrella [11, 23] | Barnyardgrass plant response rating [13]
40: Plant response rating, Rice [10, 22] | Plant response rating, Sedge, Umbrella [11, 22] | Plant response rating, Flood, Ducksalad [12]
100: Crabgrass, Large plant response rating [1, 15] | Plant response rating, Crabgrass, Large [1, 17] | Plant response rating, Morningglory [2, 14] | Morningglory plant response rating [2, 15] | Plant response rating, Pigweed [4, 14] | Pigweed plant response rating [4, 15] | Plant response rating, Pigweed [4, 16] | Plant response rating, Pigweed [4, 17] | Plant response rating, Velvetleaf [5, 14] | Velvetleaf plant response rating [5, 15] | Plant response rating, Velvetleaf [5, 17] | Plant response rating, Barnyardgrass [6, 17]
10: Plant response rating, Wheat [7, 17] | Plant response rating, Corn [8, 14] | Plant response rating, Barley [9, 18]
65: Plant response rating, Flood, Rice [10]
60: Plant response rating, Morningglory [2, 16] | Corn plant response rating [8, 15] | Plant response rating, Barley [9, 20] | Plant response rating, Rice [10, 23] | Plant response rating, Flood, Sedge, Umbrella [11] | Plant response rating, Barnyardgrass [13, 22]
80: Plant response rating, Morningglory [2, 17] | Plant response rating, Velvetleaf [5, 16]
95: Plant response rating, Flood, Barnyardgrass [13] | Plant response rating, Barnyardgrass [13, 23]
30: Plant response rating, Barnyardgrass [6, 16] | Plant response rating, Barley [9, 19] | Plant response rating, Barley [9, 21] | Sedge, Umbrella plant response rating [11] | Plant response rating, Ducksalad [12, 23]
70: Plant response rating, Foxtail, Giant [3, 16]

CCCc1ncc(C(=O)C2=C(O)CCCC2=O)c(=O)n1-c1ccccc1 [Compound 217]
5: Plant response rating, Barley [9, 21]
40: Plant response rating, Wheat [7, 24] | Plant response rating, Corn [8, 24] | Plant response rating, Flood, Sedge, Umbrella [11] | Plant response rating, Sedge, Umbrella [11, 22] | Plant response rating, Flood, Ducksalad [12]
10: Plant response rating, Barley [9, 19] | Plant response rating, Barley [9, 20]
100: Plant response rating, Crabgrass, Large [1, 24] | Plant response rating, Crabgrass, Large [1, 25] | Plant response rating, Morningglory [2, 24] | Plant response rating, Pigweed [4, 24] | Plant response rating, Pigweed [4, 25] | Plant response rating, Velvetleaf [5, 24] | Plant response rating, Velvetleaf [5, 25]
80: Plant response rating, Foxtail, Giant [3, 24] | Plant response rating, Foxtail, Giant [3, 25] | Plant response rating, Barnyardgrass [6, 25]
20: Plant response rating, Flood, Rice [10]
0: Plant response rating, Corn [8, 25] | Plant response rating, Barley [9, 18] | Plant response rating, Rice [10, 22] | Plant response rating, Ducksalad [12, 22] | Plant response rating, Flood, Barnyardgrass [13] | Plant response rating, Barnyardgrass [13, 22]
30: Plant response rating, Wheat [7, 25]
90: Plant response rating, Barnyardgrass [6, 24]
70: Plant response rating, Morningglory [2, 25]

CCCCn1c(CCC)ncc(C(=O)C2=C(O)CCCC2=O)c1=O [Compound 75]
100: Plant response rating, Crabgrass, Large [1, 27] | Plant response rating, Morningglory [2, 26] | Plant response rating, Pigweed [4, 14] | Plant response rating, Pigweed [4, 26] | Plant response rating, Pigweed [4, 16] | Plant response rating, Pigweed [4, 27] | Plant response rating, Velvetleaf [5, 14] | Plant response rating, Velvetleaf [5, 26] | Plant response rating, Velvetleaf [5, 27]
80: Plant response rating, Foxtail, Giant [3, 14] | Plant response rating, Barnyardgrass [6, 14] | Plant response rating, Barnyardgrass [6, 27]
90: Plant response rating, Crabgrass, Large [1, 14] | Plant response rating, Crabgrass, Large [1, 26] | Plant response rating, Crabgrass, Large [1, 16] | Plant response rating, Morningglory [2, 14] | Plant response rating, Morningglory [2, 27] | Plant response rating, Foxtail, Giant [3, 26] | Plant response rating, Velvetleaf [5, 16] | Plant response rating, Barnyardgrass [6, 26]
20: Plant response rating, Barnyardgrass [13, 22]
50: Plant response rating, Foxtail, Giant [3, 16] | Plant response rating, Wheat [7, 26] | Plant response rating, Corn [8, 26] | Plant response rating, Flood, Sedge, Umbrella [11] | Plant response rating, Flood, Ducksalad [12]
30: Plant response rating, Ducksalad [12, 22]
40: Plant response rating, Barnyardgrass [6, 16]
45: Plant response rating, Flood, Rice [10]
60: Plant response rating, Morningglory [2, 16] | Plant response rating, Flood, Barnyardgrass [13]
70: Plant response rating, Foxtail, Giant [3, 27]
0: Plant response rating, Wheat [7, 14] | Plant response rating, Wheat [7, 16] | Plant response rating, Wheat [7, 27] | Plant response rating, Corn [8, 14] | Plant response rating, Corn [8, 16] | Plant response rating, Corn [8, 27] | Plant response rating, Barley [9, 28] | Barley plant response rating (0 to 100 scale) [9, 29] | Plant response rating, Barley [9, 30] | Plant response rating, Barley [9, 31] | Plant response rating, Rice [10, 22] | Plant response rating, Sedge, Umbrella [11, 22]

O=C1CCCC(O)=C1C(=O)c1cnc(C2CC2)n(-c2ccccc2)c1=O [Compound 87]
40: Plant response rating, Wheat [7, 27]
60: Plant response rating, Wheat [7, 26] | Plant response rating, Rice [10, 23] | Plant response rating, Flood, Barnyardgrass [13]
50: Plant response rating, Morningglory [2, 16] | Plant response rating, Corn [8, 26] | Plant response rating, Sedge, Umbrella [11, 23]
0: Plant response rating, Corn [8, 16] | Plant response rating, Corn [8, 27] | Plant response rating, Barley [9, 28] | Barley plant response rating (0 to 100 scale) [9, 29] | Plant response rating, Barley [9, 30] | Rice plant response rating [10] | Sedge, Umbrella plant response rating [11]
90: Plant response rating, Crabgrass, Large [1, 14] | Plant response rating, Crabgrass, Large [1, 26] | Plant response rating, Morningglory [2, 14] | Plant response rating, Foxtail, Giant [3, 26] | Plant response rating, Barnyardgrass [6, 26] | Plant response rating, Barnyardgrass [6, 27]
55: Plant response rating, Barnyardgrass [13, 23]
70: Plant response rating, Foxtail, Giant [3, 14] | Plant response rating, Flood, Rice [10] | Plant response rating, Flood, Sedge, Umbrella [11]
100: Plant response rating, Crabgrass, Large [1, 27] | Plant response rating, Morningglory [2, 26] | Plant response rating, Pigweed [4, 14] | Plant response rating, Pigweed [4, 26] | Plant response rating, Velvetleaf [5, 14] | Plant response rating, Velvetleaf [5, 26] | Plant response rating, Velvetleaf [5, 16] | Plant response rating, Velvetleaf [5, 27]
5: Plant response rating, Barley [9, 31]
45: Plant response rating, Barnyardgrass [13, 22]
80: Plant response rating, Morningglory [2, 27] | Plant response rating, Foxtail, Giant [3, 27] | Plant response rating, Barnyardgrass [6, 14]
10: Plant response rating, Wheat [7, 16] | Plant response rating, Corn [8, 14]
30: Plant response rating, Wheat [7, 14] | Plant response rating, Ducksalad [12, 22]
20: Plant response rating, Barnyardgrass [6, 16] | Plant response rating, Rice [10, 22] | Plant response rating, Sedge, Umbrella [11, 22] | Plant response rating, Flood, Ducksalad [12] | Plant response rating, Ducksalad [12, 23] | Ducksalad plant response rating [12] | Barnyardgrass plant response rating [13]
